Results published in patent US8338482B2, “Modulating notch1 signaling pathway for treating neuroendocrine tumors” (Wisconsin Alumni Research Foundation, priority 2007, dated 2012).

Experiments:
[1] = system: H727 human lung carcinoid cancer cells; experiment: MTT cell proliferation assay, pulmonary carcinoid cells; type: cell-based; conditions: VPA 0 to 4 mM, up to 6 days
From the text: (§1) Cell Culture BON human GI carcinoid cancer cells, kindly provided by Drs. B. Mark Evers and Courtney M. Townsend, Jr. (University of Texas Medical Branch, Galveston, Tex., USA), and H727 human lung carcinoid cancer cells (American Type Tissue Collection, Manassas, Va., USA) were maintained as previously described (Sippel, R S et al., Raf-1 Activation Suppresses neuroendocrine marker and hormone levels in human gastrointestinal carcinoid cells. Am J Physiol Gastrointest Liver Physiol. 2003 August; 285(2):G245-54, Van Gompel J J et al., ZM336372, A Raf-1 Activator, Suppresses Growth and Neuroendocrine Hormone Levels in Carcinoid Tumor Cells. Mol Cancer Ther. 2005 June; 4(6):910-7)
Cell Proliferation Assay Carcinoid cancer cell proliferation was measured by the MTT (thiazolyl blue tetrazolium bromide; Sigma-Aldrich, St. Louis, Mo., USA) rapid calorimetric assay as previously described (Van Gompel J J et al., ZM336372, A Raf-1 Activator, Suppresses Growth and Neuroendocrine Hormone Levels in Carcinoid Tumor Cells. Mol Cancer Ther. 2005 June; 4(6):910-7). Briefly, cells were seeded in quadruplicate on 24-well plates and incubated for 24 hours to allow cell attachment. The cells were then treated with SBHA (Sigma-Aldrich) in concentrations of 0 to 50 μM and incubated for up to 6 days. The MTT assay was performed by replacing the standard medium with 250 μL of serum-free medium containing MTT (0.5 mg/mL) and incubated at 37° C. for 3 hours. […] The plates were then measured at 540 nm using a spectrophotometer (μQuant; Bio-Tek Instruments, Winooski, Vt., USA). […]
(§2) Cell Proliferation Assay Carcinoid tumor cell proliferation was measured by the MTT (methylthiazolyldiphenyl-tetrazolium bromide; Sigma-Aldrich, St. Louis, Mo.) rapid colorimetric assay as previously described (Van Gompel J J et al., ZM336372, A Raf-1 Activator, Suppresses Growth and Neuroendocrine Hormone Levels in Carcinoid Tumor Cells. Mol Cancer Ther 2005; 4:910-917). […] The plates were then measured at 540 nm using a spectrophotometer (μQuant; Bio-Tek Instruments, Winooski, Vt.).

[2] = system: BON human GI carcinoid cancer cells; experiment: MTT cell proliferation assay, GI carcinoid cells; type: cell-based
From the text: as §1
Cell Proliferation Assay Carcinoid cancer cell proliferation was measured by the MTT (thiazolyl blue tetrazolium bromide; Sigma-Aldrich, St. Louis, Mo., USA) rapid calorimetric assay as previously described (Van Gompel J J et al., ZM336372, A Raf-1 Activator, Suppresses Growth and Neuroendocrine Hormone Levels in Carcinoid Tumor Cells. Mol Cancer Ther. 2005 June; 4(6):910-7). Briefly, cells were seeded in quadruplicate on 24-well plates and incubated for 24 hours to allow cell attachment. The cells were then treated with SBHA (Sigma-Aldrich) in concentrations of 0 to 50 μM and incubated for up to 6 days. The MTT assay was performed by replacing the standard medium with 250 μL of serum-free medium containing MTT (0.5 mg/mL) and incubated at 37° C. for 3 hours. After incubation, 750 μL of dimethyl sulfoxide (Sigma-Aldrich) was added to each well and mixed thoroughly. The plates were then measured at 540 nm using a spectrophotometer (μQuant; Bio-Tek Instruments, Winooski, Vt., USA).
Cell Culture BON human gastrointestinal (GI) carcinoid tumor cells, kindly provided by Drs. B. Mark Evers and Courtney M. Townsend, Jr. […]
as §2

[3] = system: ASCL1 promoter; experiment: ASCL1 promoter luciferase reporter assay; type: cell-based, human; conditions: GI carcinoid cells, VPA 48 hours
[4] = Serum VPA level in xenograft mice; type: in vivo; conditions: nude athymic NU/NU, mouse, ip, two hours after i.p. injection, last day, 366 mg/kg, read-out: median serum VPA level
Experimental: After confirming that VPA activates Notch1 signaling and suppresses carcinoid cell growth in vitro, we were interested in testing its efficacy in vivo. Subcutaneous human GI carcinoid tumors were developed in immunocompromised mice, which were then given daily intraperitoneal injections of VPA, and the tumors were measured every 4 days for 20 days. The tumors of the saline-treated control mice grew at a higher rate than did those of the VPA-treated animals (FIG. 28A). Indeed, the growth of the tumors in the treatment group was almost static. On the last day of the experiment, blood was drawn from each animal in the treatment group two hours after intraperitoneal injection of VPA.

[5] = system: neuroblastoma (NB) cells; conditions: cited from earlier work

CCCC(CCC)C(=O)O [VPA, 2-propylpentanoic acid]
cell growth [1]: Statistically significant growth inhibition | inhibition at 1000 µM ([2]; Homo sapiens, 144 h, 1 mM, 6 days of treatment, read-out: growth inhibition relative to untreated cells): 50% | cell growth ([2]; VPA 0 to 4 mM, up to 6 days): profound dose-dependent inhibition of growth | decrease in ASCL1 promoter luciferase activity [3]: ~4 fold | concentration at 2 h [4]: 46000 ng/mL | cell death [5]: increased cell death | levels of intracellular Notch-1 and Hes-1 [5]: increased levels
